Experimental data reported in ChEMBL document CHEMBL3352358, “Discovery of 2-(cyclohexylmethylamino)pyrimidines as a new class of reversible valosine containing protein inhibitors” (J Med Chem, 2014).

Experiments:
[1] = molecular target: Transitional endoplasmic reticulum ATPase (Homo sapiens, UniProt P55072); experiment: biochemical; format: cell-based
Description: Inhibition of human full length VCP (2 to 806 residues) expressed in High5 insect cells assessed as reduction in ATPase activity by measuring ADP formation by NADH coupled assay

[2] = Inhibition of cell proliferation of human HCT116 cells after 72 hrs by thermostable firefly luciferase based assay; format: functional, HCT-116; conditions: Homo sapiens, HCT-116, 72 h; read-out: IC50

Transitional endoplasmic reticulum ATPase, sequence (P55072 whole entry): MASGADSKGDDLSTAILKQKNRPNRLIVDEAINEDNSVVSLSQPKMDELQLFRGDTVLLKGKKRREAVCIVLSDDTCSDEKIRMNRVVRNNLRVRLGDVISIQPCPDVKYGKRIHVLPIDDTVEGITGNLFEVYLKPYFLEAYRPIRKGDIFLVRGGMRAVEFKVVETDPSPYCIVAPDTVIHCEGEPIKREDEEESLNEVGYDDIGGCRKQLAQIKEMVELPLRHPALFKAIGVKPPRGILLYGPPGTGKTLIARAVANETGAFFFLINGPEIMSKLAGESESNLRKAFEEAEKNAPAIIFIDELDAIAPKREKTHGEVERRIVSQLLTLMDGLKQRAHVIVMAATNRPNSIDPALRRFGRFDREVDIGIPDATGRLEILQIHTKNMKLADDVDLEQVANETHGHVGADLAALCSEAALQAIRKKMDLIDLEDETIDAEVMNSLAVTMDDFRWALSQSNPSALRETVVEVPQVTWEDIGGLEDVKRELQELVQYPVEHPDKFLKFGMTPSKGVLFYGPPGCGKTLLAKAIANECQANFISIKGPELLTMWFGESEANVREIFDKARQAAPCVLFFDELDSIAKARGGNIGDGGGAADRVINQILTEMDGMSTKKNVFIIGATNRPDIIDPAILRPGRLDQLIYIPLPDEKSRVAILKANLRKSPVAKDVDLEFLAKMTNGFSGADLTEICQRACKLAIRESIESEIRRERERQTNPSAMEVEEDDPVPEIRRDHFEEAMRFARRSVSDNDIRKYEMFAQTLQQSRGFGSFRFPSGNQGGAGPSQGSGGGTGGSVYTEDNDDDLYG

For `NC(=O)[C@H]1CC[C@H](CNc2nc(NCc3ccccc3)cc(-c3cc4ccccc4o3)n2)CC1`, the IC50 [1] was 61 nM and the IC50 [2] was 4640 nM.

In the case of `CNC(=O)[C@H]1CC[C@H](CNc2nc(NCc3ccccc3)cc(-c3ccccc3)n2)CC1`, the IC50 [1] is reported as 448 nM and the IC50 [2] is reported as 9260 nM.

`CC(=O)c1cccc(-c2cc(NCc3ccccc3)nc(NC[C@H]3CC[C@H](C(N)=O)CC3)n2)c1` showed an IC50 [1] of 87 nM and an IC50 [2] of 6550 nM.

For `NC(=O)[C@H]1CC[C@H](CNc2nc(NCc3ccccc3)cc(-c3cccc(CO)c3)n2)CC1`, the IC50 [1] was 135 nM and the IC50 [2] was greater than 10000 nM.

`CCOc1ccc(-c2cc(NCc3ccccc3)nc(NC[C@H]3CC[C@H](C(N)=O)CC3)n2)cc1` gave an IC50 [1] of 246 nM and an IC50 [2] of 2230 nM.

`CC(=O)Nc1ccc(-c2cc(NCc3ccccc3)nc(NC[C@H]3CC[C@H](C(N)=O)CC3)n2)cc1` gave an IC50 [1] of 59 nM and an IC50 [2] of 4310 nM.

With `NC(=O)[C@H]1CC[C@H](CNc2nc(NCc3ccccc3)cc(-c3cccnc3)n2)CC1` the IC50 [1] was 109 nM and the IC50 [2] was greater than 10000 nM.

Compound `NC(=O)[C@H]1CC[C@H](CNc2nc(NCc3ccccc3)cc(-c3ccccc3F)n2)CC1` has an IC50 [1] of 46 nM and an IC50 [2] greater than 10000 nM.

With `NC(=O)[C@H]1CC[C@H](CNc2nc(NCc3ccccc3)cc(-c3ccc4[nH]ncc4c3)n2)CC1` the IC50 [1] was 71 nM and the IC50 [2] was 5720 nM.

Work on `NC(=O)[C@H]1CC[C@H](CNc2nc(NCc3ccccc3)cc(-c3ccc(C(F)(F)F)cc3)n2)CC1` yielded an IC50 [1] of 222 nM and an IC50 [2] of 7610 nM.

`NC(=O)[C@H]1CC[C@H](CNc2nc(NCc3ccccc3)cc(-c3ccc4[nH]ccc4c3)n2)CC1` showed an IC50 [1] of 82 nM and an IC50 [2] of 5640 nM.

For `NNC(=O)[C@H]1CC[C@H](CNc2nc(NCc3ccccc3)cc(-c3ccccc3)n2)CC1`, the IC50 [1] was 986 nM and the IC50 [2] was greater than 20000 nM.

Compound `CS(=O)(=O)NC(=O)[C@H]1CC[C@H](CNc2nc(NCc3ccccc3)cc(-c3ccccc3)n2)CC1` has an IC50 [1] of 133 nM and an IC50 [2] greater than 20000 nM.

Work on `O=C(NS(=O)(=O)C(F)(F)F)[C@H]1CC[C@H](CNc2nc(NCc3ccccc3)cc(-c3ccccc3)n2)CC1` yielded an IC50 [1] of 264 nM and an IC50 [2] greater than 20000 nM.

In the case of `Cc1cccc(-c2cc(NCc3ccccc3)nc(NC[C@H]3CC[C@H](C(N)=O)CC3)n2)c1`, the IC50 [1] is reported as 183 nM and the IC50 [2] is reported as 4160 nM.

`NC(=O)[C@H]1CC[C@H](CNc2nc(NCc3ccccc3)cc(-c3ccoc3)n2)CC1` gave an IC50 [1] of 491 nM and an IC50 [2] of 8750 nM.

Work on `COc1cccc(-c2cc(NCc3ccccc3)nc(NC[C@H]3CC[C@H](C(N)=O)CC3)n2)c1` yielded an IC50 [1] of 149 nM and an IC50 [2] of 6660 nM.

`O=C(O)[C@H]1CC[C@H](CNc2nc(NCc3ccccc3)cc(-c3ccccc3)n2)CC1` gave an IC50 [1] of 27 nM and an IC50 [2] greater than 20000 nM.

With `NC(=O)[C@H]1CC[C@H](CNc2nc(NCc3ccccc3)cc(-c3ccc(F)cc3)n2)CC1` the IC50 [1] was 299 nM and the IC50 [2] was greater than 10000 nM.

In the case of `NC(=O)[C@H]1CC[C@H](CNc2nc(NCc3ccccc3)cc(-c3ccsc3)n2)CC1`, the IC50 [1] is reported as 452 nM and the IC50 [2] is reported as 7410 nM.

Work on `NC(=O)[C@H]1CC[C@H](CNc2nc(NCc3ccccc3)cc(-c3ccc(CO)cc3)n2)CC1` yielded an IC50 [1] of 89 nM and an IC50 [2] of 7890 nM.

Work on `CC(=O)c1ccc(-c2cc(NCc3ccccc3)nc(NC[C@H]3CC[C@H](C(N)=O)CC3)n2)cc1` yielded an IC50 [1] of 102 nM and an IC50 [2] greater than 10000 nM.

`NC(=O)[C@H]1CC[C@H](CNc2nc(NCc3ccccc3)cc(-c3ccccc3)n2)CC1` gave an IC50 [1] of 127 nM and an IC50 [2] of 9580 nM.

`NC(=O)[C@H]1CC[C@H](CNc2nc(NCc3ccccc3)cc(-c3ccc(Cl)cc3)n2)CC1` gave an IC50 [1] of 106 nM and an IC50 [2] of 7320 nM.

Compound `NC(=O)[C@H]1CC[C@H](CNc2nc(NCc3ccccc3)cc(-c3cccc(O)c3)n2)CC1` has an IC50 [1] of 106 nM and an IC50 [2] greater than 10000 nM.

In the case of `NC(=O)[C@H]1CC[C@H](CNc2nc(NCc3ccccc3)cc(-c3csc4ccccc34)n2)CC1`, the IC50 [1] is reported as 74 nM and the IC50 [2] is reported as 5820 nM.
